In patent US9334256B2, “Agents and methods for treating ischemic and other diseases” (NoNO INC., priority 2011, dated 2016):

Key:
TRPM7 [1] = biological target: T1, TRPM7 (Mus musculus, UniProt Q923J1); experiment: PI uptake cell death assay in TRPM7-expressing HEK-293 cells (type of assay from Example 1); assay type: cell-based, murine
T1 construct: expressed in transfected cells; host or cells: HEK-293 tSA (HEK-293T) cells, transient transfection with Lipofectamine 2000
Excerpt: The TRPM7 channel provides a pathway for mono- and divalent cations into the cell, and is unique in that it contains a functional C-terminal α-kinase domain. […] The induction of chemical anoxia in host cells such as recombinant HEK293 cells can be used to activate TRPM7. This activation is detectable with the use measurements of cellular calcium accumulation. This is achievable with the use of a fluorescent calcium indicator. Alternatively, this activation can also be measured using radiolabelled Ca2+ (^45Ca^2+) as described previously by Sattler et al. (Sattler et al., 1998) and Aarts et al. (Aarts et al., 2003).
Hoechst 33342 was purchased as a 10 mg/mL solution in water (Molecular Probes Inc., Eugene, Oreg.). Propidium iodide (PI) was purchased as a powder and prepared by dissolving in PBS at 1 mg/mL. PI solutions were stored at 4° C. until use. Hoechst and PI were added directly to cell culture to 5 μg/mL and 10 μg/mL respectively. Cells were incubated at room temperature or at 37° C. for 10 minutes to allow for adequate uptake, and fluorescence observed using a NIKON Eclipse TE2000 inverted microscope and TE-FM Epi-Fluorescence attachment (Nikon Canada).
Untransfected cells or cells transfected with the TRPM7/pTracer or ΔPDZ/pTracer construct were plated onto 24-well plates, 24-hours post-transfection. Untransfected cells were plated at 0.75×10^6 cells/well and transfected cells at 1×10^6 cells/well. The plates were coated with poly-D-lysine to strengthen cell adhesion and to minimize cell loss during washes. Cells were loaded by incubation with 5 μM fluo-3 AM and 0.02% pluronic in HBSS at 37° C. for 30 minutes. Following loading, cells were washed with an aglycaemic HBSS containing, in mM: 20 N-methyl-D-glucamine (NMDG), 121 NaCl, 5 KCl, 10 HEPES acid, 10 HEPES-Na salt, 3 NaHCO3, 1 Na-pyruvate, and 1.8 CaCl2, pH adjusted to 7.4 with HCl. Calcium uptake, as assessed by fluo-3 fluorescence, was measured in response to 0, 5, 10, 15, 20, or 25 mM sodium cyanide (NaCN; Mallinckrodt Baker Inc., Phillipsburg, N.J.) dissolved in aglycaemic HBSS. A 250 mM NaCN stock was prepared in water and stored at room temperature for up to 2 weeks. Measurements of fluo-3 fluorescence were taken over a 2 hour period at 10 minutes intervals at room temperature (22-25° C.). Calcium uptake assays were performed 48 hours post-transfection.
Cell death, as assessed by PI uptake, was examined at the end of the 2 hour calcium uptake assay. Cells were stained with 10 μg/mL PI and PI fluorescence measured using the Fluoroskan microplate reader (λ excitation=590 nm, λ emission=630 nm) and accompanying Ascent software (Thermo Electron Corp.). To obtain a reading of maximal fluorescence (Fmax), 0.5% Triton X-100 was added to each well and allowed to incubate for 20 minutes. Cell death assays were performed 48 hours post-transfection.
Data was entered into Excel (Microsoft, Seattle, Wash.) or SigmaPlot (SPSS Inc., Chicago, Ill.) for analysis. Pooled data are presented as the mean of at least 3 separate experiments±sem. Calcium uptake is expressed as a fraction of baseline uptake: ΔFt=(Ft−Fo)/Fo where Ft is the fluorescence at time t, and Fo is the fluorescence at baseline. Cell death is expressed as a percentage of total cell death: cell death (%)=Ft/Fmax×100 where Ft is the fluorescence at time t and Fmax is the maximal fluorescence obtained by permeabilization with Triton X-100. Concentration-response curves were fit by nonlinear regression with a 4 parameter logistic curve represented by the following equation: y=min+{(max−min)/[1+(x/EC50)n]} where y is the response at concentration x, min is the minimal response, max is the maximal response, EC50 is the concentration required for half-maximal response, and n is the Hill slope. Statistical analysis of data was carried out with a two-tailed Student's t test, or a one-way analysis of variance (ANOVA) followed by post hoc pairwise multiple comparisons testing using the Holm-Sidak method, where appropriate. […]

TRPM7 ion channel = biological target: T2, TRPM7 ion channel (Mus musculus, UniProt Q923J1); experiment: Whole-cell patch clamp of TRPM7 currents in HEK293 cells; assay type: cell-based; conditions: value shown = concentration at which the compound significantly inhibits the ion channel
T2 construct: expressed in transfected cells; host or cells: TRPM7-tet-on HEK293 cells
Experimental: To further understand the structure function relationships between the TRPM7 inhibitors identified in the TRPM7-dependent HEK death assay, the activity of a subset of these inhibitors described herein were tested for their ability to inhibit TRPM7 currents in cell systems. Whole-cell patch clamp recordings were used essentially as described to test the TRPM7 inhibitors in HEK293 cells, H9c2 cardiomyocytes and cultured neurons. […] Those that provide >10% inhibition of TRPM7 channel activity in the HEK293 cell system were labeled with the concentration tested (generally 5 uM). Thus, the compounds in this table marked with such a value are able to block the activity gof the TRPM7 ion channel. FIGS. 2A-C provide an example of this for the TRPM7 inhibitor 399 (Structure 9). […] Numbers in brackets indicate the number of independent tests, and the bars represent the SEM.
Whole-cell currents were recorded using an Axopatch 1D or MultiClamp 700B amplifier and were digitized at 10 kHz and low-pass filtered at 2 kHz, at room temperature. pClamp10 software was used for data acquisition and analysis. Patch electrodes were pulled from Borosilicate glass and fire polished to a resistance of 2-4 MΩ. All drugs were administrated directly to cell bodies under recording through the fast exchange perfusion system.
The intracellular solution (ICS) contains (mM) 145 Cs-methanesulfonate, 8 NaCl, l MgCl2, 4.1 CaCl2, 10 EGTA, and 10 HEPES, 5 ATP, pH at 7.4, with 300-305 mOsm. The extracellular solution (ECS) contains (mM) 140 NaCl, 5 KCl, 2 CaCl2, 20 HEPES, and 10 glucose, pH at 7.4 and with 315-320 mOsm.
Voltage stimuli lasting 250 ms were delivered at 5-s intervals with voltage ramps ranging from −100 to +100 mV. The current values at −80 mV and +80 mV on I-V curve represent the measures of inward and outward current respectively.
(§1) Table X and FIGS. 7-51 show screening data for several additional compounds that are variants of M5, M6 or M21. The synthesis of compounds of Table X and FIGS. 7-51 is shown in Appendices A-C. The compounds shown in FIGS. 7-51 can be related to the appropriate row of Table X by the compound number shown in the figures and in the first column of Table X. The compounds in Table X other than M5, M6 and M21 themselves, are believed to be novel. The Table provides a number identifying the compound, its structurer, molecular weight and its cluster (i.e., whether the compound resembles M5, M6 or M21). The three columns relations to PI uptake describe the results of screening the compounds in the type of assay from Example 1. […] The last two columns show an effect on proliferation of Weri retinoblastoma or HeLa cervical cancer cells. Inhibition of proliferation is a measure of anti-neoplastic activity. […] If no data is shown, no test was performed.

cancer cell lines = experiment: Cell proliferation studies, cancer cell lines in general; assay type: cell-based; conditions: summary statement
Experimental: (§2) Cells were grown to 70% confluency, trypsinized, counted, and seeded in 96-well flat-bottom plates at a final concentration of 2.5×10^3-5.0×10^3 cells/well in growth media containing 5% FBS (Day 0). Other well sizes and cell densities were used successfully as well. Cells were allowed to incubate in growth media for 24 hours to allow for maximum adhesion. Treatment with the test agent began on Day 1 and continued for 72 hours either with or without retreatment. At the 72 hour time point, viable cell numbers are quantified by the CellTiter-Glo® cell viability assay as described above, or using standard MTT, SRB or BrDU assays. Experiments were repeated at least twice with the same concentrations to determine growth inhibitory activity. […] In an alternative format, this assay was used to screen potential TRPM7 inhibitory compounds at a fixed concentration, usually 5 or 10 uM. Alternatively, lower or higher concentrations were used. […] Thus, for the compounds in Table 1, all are potential anti-cancer agents. Some, like 399 and 509, are more general and may be effective against a wide range of cancers. Others, like 2785, are more specific and may be effective against a subset of cancers.
(§3) Data Collection—For the cell proliferation studies, data from each experiment was collected and expressed as % Cell Growth using the following calculation: % Cell Growth=(ftest/fvehicle)×100 Where ftest is the luminescent signal of the tested sample, and fvehicle is the luminescence of the vehicle in which the drug is dissolved (or appropriate measure for the other viability/proliferation measures). Dose response graphs and IC50 values were generated using standard software using the following variable slope equation: […]

[2] = system: neurons, hepatocytes, cardiomyocytes, retina; experiment: Survival after anoxia in cells and tissues; assay type: cell-based; conditions: summary statement
TRPM7 [3] = biological target: TRPM7 (Homo sapiens, UniProt Q96QT4); conditions: Nadler et al., Jiang et al.; read-out: IC50 for inhibition of TRPM7; cited from earlier work
Weri cells = experiment: Cell proliferation assay, Weri retinoblastoma cells; assay type: cell-based
Experimental: as §2, §3, §1

[4] = Table X, the lower the number, the more potent in protecting against cell death
[5] = Table X, the lower the number, the more potent
[6] = Table Y, commercially available compounds

T2 sequence (Q923J1 whole entry): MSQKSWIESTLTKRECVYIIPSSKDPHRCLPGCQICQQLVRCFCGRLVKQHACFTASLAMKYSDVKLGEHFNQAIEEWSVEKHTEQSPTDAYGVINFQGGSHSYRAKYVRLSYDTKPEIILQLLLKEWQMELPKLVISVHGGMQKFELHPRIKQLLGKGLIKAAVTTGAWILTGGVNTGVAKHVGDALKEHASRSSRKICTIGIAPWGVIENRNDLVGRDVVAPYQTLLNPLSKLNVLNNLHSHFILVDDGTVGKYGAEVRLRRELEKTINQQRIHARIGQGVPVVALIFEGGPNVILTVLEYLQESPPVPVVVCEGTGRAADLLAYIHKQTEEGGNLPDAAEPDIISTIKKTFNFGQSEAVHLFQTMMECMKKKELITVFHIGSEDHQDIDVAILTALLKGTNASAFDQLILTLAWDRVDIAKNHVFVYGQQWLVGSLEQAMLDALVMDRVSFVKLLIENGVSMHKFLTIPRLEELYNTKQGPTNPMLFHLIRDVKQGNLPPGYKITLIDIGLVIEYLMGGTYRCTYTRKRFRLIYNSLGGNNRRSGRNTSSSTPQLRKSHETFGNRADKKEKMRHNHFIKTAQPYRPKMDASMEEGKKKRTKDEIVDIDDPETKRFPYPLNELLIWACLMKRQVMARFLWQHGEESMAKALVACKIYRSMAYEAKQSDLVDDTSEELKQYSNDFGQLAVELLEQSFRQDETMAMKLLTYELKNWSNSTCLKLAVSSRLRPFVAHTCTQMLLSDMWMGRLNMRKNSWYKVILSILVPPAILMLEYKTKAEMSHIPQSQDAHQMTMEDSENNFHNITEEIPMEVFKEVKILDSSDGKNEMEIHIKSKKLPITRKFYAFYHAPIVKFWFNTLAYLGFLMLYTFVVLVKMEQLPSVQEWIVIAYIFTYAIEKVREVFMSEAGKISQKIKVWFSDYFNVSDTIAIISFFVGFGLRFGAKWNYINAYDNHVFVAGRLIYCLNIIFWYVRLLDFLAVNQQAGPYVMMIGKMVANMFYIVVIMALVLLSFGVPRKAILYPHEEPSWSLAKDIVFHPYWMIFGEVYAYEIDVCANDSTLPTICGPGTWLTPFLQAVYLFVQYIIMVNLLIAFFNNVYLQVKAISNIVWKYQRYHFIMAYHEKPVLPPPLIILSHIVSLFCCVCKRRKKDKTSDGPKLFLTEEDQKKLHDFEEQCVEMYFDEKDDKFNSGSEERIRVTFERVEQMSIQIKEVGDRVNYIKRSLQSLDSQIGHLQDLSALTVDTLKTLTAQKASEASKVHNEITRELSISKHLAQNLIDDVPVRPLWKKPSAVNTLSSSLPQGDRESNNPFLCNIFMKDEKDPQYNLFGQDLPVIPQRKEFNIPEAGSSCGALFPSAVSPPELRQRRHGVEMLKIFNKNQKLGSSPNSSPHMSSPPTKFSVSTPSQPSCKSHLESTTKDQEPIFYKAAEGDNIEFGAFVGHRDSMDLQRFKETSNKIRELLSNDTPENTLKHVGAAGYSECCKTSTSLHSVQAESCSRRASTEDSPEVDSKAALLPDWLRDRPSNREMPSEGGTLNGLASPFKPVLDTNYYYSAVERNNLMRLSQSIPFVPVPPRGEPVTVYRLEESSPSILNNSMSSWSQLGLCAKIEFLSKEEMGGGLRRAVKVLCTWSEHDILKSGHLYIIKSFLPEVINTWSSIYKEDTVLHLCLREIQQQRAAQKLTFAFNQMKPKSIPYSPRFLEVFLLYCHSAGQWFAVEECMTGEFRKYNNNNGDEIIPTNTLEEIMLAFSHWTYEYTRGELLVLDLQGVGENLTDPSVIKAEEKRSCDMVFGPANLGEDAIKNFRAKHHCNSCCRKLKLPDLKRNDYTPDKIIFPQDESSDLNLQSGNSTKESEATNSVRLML
T1 sequence (Q923J1 whole entry): as above
Sequence of TRPM7 (Homo sapiens, UniProt Q96QT4) (Q96QT4 whole entry, species assumed): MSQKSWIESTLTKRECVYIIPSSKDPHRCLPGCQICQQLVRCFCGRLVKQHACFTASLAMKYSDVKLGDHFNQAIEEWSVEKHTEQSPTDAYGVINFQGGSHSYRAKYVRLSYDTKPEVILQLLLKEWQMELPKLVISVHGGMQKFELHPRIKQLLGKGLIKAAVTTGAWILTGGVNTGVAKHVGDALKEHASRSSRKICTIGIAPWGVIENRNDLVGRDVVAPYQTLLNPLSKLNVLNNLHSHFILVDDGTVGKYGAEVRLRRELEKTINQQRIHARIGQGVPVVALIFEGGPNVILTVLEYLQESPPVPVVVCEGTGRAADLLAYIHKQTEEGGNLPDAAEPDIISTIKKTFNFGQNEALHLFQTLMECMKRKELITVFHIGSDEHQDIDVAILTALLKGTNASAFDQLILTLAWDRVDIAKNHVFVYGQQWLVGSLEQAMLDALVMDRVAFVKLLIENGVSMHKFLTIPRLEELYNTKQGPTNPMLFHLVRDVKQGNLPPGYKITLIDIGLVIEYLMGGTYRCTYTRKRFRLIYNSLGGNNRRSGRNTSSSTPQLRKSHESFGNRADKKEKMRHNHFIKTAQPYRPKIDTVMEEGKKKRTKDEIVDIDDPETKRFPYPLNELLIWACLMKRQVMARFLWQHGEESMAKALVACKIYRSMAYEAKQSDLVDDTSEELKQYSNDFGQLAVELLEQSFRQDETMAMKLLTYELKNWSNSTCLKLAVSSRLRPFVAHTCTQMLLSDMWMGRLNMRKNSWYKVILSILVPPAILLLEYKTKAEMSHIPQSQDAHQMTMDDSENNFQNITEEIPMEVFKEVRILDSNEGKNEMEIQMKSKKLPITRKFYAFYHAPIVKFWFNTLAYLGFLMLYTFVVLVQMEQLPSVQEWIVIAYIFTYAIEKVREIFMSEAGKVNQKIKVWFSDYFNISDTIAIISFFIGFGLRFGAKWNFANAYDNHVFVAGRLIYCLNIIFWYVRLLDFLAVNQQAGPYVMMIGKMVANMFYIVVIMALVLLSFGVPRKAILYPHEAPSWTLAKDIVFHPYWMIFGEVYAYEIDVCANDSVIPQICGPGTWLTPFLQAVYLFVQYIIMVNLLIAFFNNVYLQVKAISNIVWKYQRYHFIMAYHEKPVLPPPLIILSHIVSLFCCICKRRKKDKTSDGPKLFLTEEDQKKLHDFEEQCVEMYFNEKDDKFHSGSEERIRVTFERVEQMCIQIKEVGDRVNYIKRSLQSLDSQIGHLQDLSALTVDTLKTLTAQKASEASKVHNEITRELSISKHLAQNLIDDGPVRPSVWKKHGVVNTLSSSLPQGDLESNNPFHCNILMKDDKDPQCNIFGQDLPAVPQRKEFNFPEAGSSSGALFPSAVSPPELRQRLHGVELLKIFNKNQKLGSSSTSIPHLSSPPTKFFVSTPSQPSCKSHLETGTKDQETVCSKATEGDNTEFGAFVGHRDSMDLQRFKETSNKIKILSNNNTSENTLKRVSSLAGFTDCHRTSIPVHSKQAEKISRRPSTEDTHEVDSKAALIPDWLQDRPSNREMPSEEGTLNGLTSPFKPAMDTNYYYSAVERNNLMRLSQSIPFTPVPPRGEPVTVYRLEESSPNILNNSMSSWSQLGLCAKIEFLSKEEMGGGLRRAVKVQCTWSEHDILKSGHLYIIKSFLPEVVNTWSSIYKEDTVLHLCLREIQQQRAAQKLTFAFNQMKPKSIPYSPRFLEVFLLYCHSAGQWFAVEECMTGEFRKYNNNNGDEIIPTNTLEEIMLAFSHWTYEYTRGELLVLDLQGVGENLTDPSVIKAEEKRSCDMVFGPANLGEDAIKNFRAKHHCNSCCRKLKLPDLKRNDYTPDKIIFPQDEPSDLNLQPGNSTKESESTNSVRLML

Question: Which results are given for COc1cccc2c1CCNC2c1sc2ccccc2c1Cl (stereo not drawn) [Compound 121]?
Answer: Normalized ratio of PI uptake (5 μM) (TRPM7 [1]; [4]): 0.053; Normalized ratio of PI uptake (10 μM) (TRPM7 [1]; [5]): 0.036; IC50 (TRPM7 [1]; Table X): 1.4 µM; TRPM7 current (TRPM7 ion channel): 5 μM (Those that provide >10% inhibition of TRPM7 channel activity in the HEK293 cell system were labeled with the concentration tested (generally 5 uM))

Question: Which “Normalized ratio of PI uptake (5 μM)” value (TRPM7 [1]; [4]) does the source give for Fc1cccc2c1CCNC2c1sc2ccccc2c1Cl (stereo not drawn) [Compound 123] here?
Answer: 0.356

Question: What about the “Normalized ratio of PI uptake (10 μM)” value (TRPM7 [1]; [5]) of the same compound?
Answer: 0.128

Question: What about the IC50 (TRPM7 [1]; Table X) of the same compound?
Answer: 4.18 µM

Question: What about the TRPM7 current (TRPM7 ion channel) of the same compound?
Answer: 5 μM (Those that provide >10% inhibition of TRPM7 channel activity in the HEK293 cell system were labeled with the concentration tested (generally 5 uM))

Question: Which “Normalized ratio of PI uptake (5 μM)” value (TRPM7 [1]; [4]) does the source give for Cc1c(Cc2ccc(Cl)c(Cl)c2)c(=O)oc2cc(O)cc(O)c12 [Compound 131] here?
Answer: 0.29

Question: What about the “Normalized ratio of PI uptake (10 μM)” value (TRPM7 [1]; [5]) of the same compound?
Answer: 0.03

Question: And the IC50 (TRPM7 [1]; Table X)?
Answer: 3.42 µM

Question: What about the TRPM7 current (TRPM7 ion channel) of the same compound?
Answer: 5 μM (Those that provide >10% inhibition of TRPM7 channel activity in the HEK293 cell system were labeled with the concentration tested (generally 5 uM))

Question: For Cc1ccc2c(c1)CCCN2C(=O)c1sc2ccccc2c1Cl [Compound M5], which “inhibition of proliferation of cancer cell lines” value (cancer cell lines) is on record?
Answer: effective in inhibiting proliferation of various cancer cell lines

Question: What about the survival after anoxia [2] of the same compound?
Answer: effective in increasing survival after anoxia in neurons, hepatocytes, cardiomyoctes, and retina

Question: With COc1cc2c(cc1OC)C(c1sc3ccccc3c1Cl)=NCC2 [Compound M6] as the compound, how does the “inhibition of proliferation of cancer cell lines” value (cancer cell lines) read?
Answer: effective in inhibiting proliferation of various cancer cell lines

Question: And the survival after anoxia [2]?
Answer: effective in increasing survival after anoxia in neurons and cardiomyocytes

Question: For [Mg+2] [Mg^2+, magnesium], which IC50 (TRPM7 [3]) is on record?
Answer: ~600 µM

Question: For COc1ccccc1C(C)N(C)C(=O)c1cc2ccccc2s1 (stereo not drawn) [T6681713 #6, reference compound], which “Normalized ratio of PI uptake (5 μM)” value (TRPM7 [1]; [6]) is on record?
Answer: 0.328

Question: What about the “Normalized ratio of PI uptake (10 μM)” value (TRPM7 [1]; [6]) of the same compound?
Answer: 0.059

Question: What about the IC50 (TRPM7 [1]; [6]) of the same compound?
Answer: 5.48 µM

Question: What about the inhibition at 5 µM (Weri cells) of the same compound?
Answer: 9%

Question: What about the inhibition at 10 µM (Weri cells) of the same compound?
Answer: 33%

Question: With COc1ccc2cc(C(=O)N(C)Cc3ccccc3N3CCCC3)[nH]c2c1 [T6899266 #9, reference compound] as the compound, how does the “Normalized ratio of PI uptake (5 μM)” value (TRPM7 [1]; [6]) read?
Answer: 0.029

Question: What about the “Normalized ratio of PI uptake (10 μM)” value (TRPM7 [1]; [6]) of the same compound?
Answer: 0

Question: And the IC50 (TRPM7 [1]; [6])?
Answer: 2.32 µM

Question: What about the inhibition at 5 µM (Weri cells) of the same compound?
Answer: 18%

Question: And the inhibition at 10 µM (Weri cells)?
Answer: 42%
